The results in this text go back to patent US20220315631A1, “STAPLED BETA-CATENIN LIGANDS” (Ohio State Innovation Foundation, priority 2019, published 2022).

Positions of bridges follow the written chain, without caps; N, C: chain ends. Non-standard residues stand in square brackets, D forms with d. Residues, ends and D or L forms follow the SMILES beside them. Chains are numbered I, II in the order given. 2Nal = N[C@@H](Cc1ccc2ccccc2c1)C(=O)O; Dap = NC[C@H](N)C(=O)O; AEEA = NCCOCCOCC(=O)O

For one data set, the target named is T1, β-catenin (Homo sapiens, UniProt P35222).
T1 construct: cells harboring plasmid pGEX-β-catenin(133-665)52 were grown in LB medium; made in house; host or cells: E. coli BL21 (DE3)
T1 sequence (P35222 133-665): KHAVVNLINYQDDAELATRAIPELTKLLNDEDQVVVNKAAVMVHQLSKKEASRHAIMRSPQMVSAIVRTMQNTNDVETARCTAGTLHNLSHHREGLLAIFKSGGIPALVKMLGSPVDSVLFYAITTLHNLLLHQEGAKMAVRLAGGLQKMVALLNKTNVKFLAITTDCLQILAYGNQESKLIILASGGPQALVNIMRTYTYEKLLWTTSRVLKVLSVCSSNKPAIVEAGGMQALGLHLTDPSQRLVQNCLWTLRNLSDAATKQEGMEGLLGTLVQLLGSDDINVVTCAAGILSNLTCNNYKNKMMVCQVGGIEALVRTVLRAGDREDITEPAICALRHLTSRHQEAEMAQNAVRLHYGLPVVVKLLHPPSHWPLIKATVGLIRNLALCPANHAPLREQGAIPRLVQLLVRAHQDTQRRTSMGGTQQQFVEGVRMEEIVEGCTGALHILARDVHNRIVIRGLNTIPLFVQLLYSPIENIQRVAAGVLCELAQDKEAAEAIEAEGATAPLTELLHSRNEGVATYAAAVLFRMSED
Put plainly: FP-based competition assay for binding to β-catenin. As for the experimental part: Samples were transferred into black-on-black 384-well non-binding microplates (Greiner) and FP was measured using a Tecan M1000 Infinite plate reader. The data were analyzed using GraphPad Prism v. 8.0 and normalized to FP values corresponding to fully bound/unbound probe. All binding values reported are the mean±SD of independent experiments.
Protein Purification. […] Cells were harvested by centrifugation and lysed in lysis buffer (20 mM Tris, pH 8.0, 150 mM NaCl, 2 mM DTT, 1% Triton-X100, 200 mM EDTA, 10 mg/mL PMSF, and 0.2 mg/mL lysozyme) on ice for 20 min, followed by sonication (8 s off, 2 s on, 1 min total, performed twice at 70% amplitude). The homogenate was centrifuged (13,000 g for 30 min at 4° C. and the clear supernatant was loaded onto an equilibrated glutathione-agarose column. After exhaustive washing with wash buffer (20 mM Tris, pH 7.4, 150 mM NaCl, 2 mM DTT), the bound GST-β-catenin was eluted with wash buffer supplemented with 10 mM glutathione, concentrated, and stored at −80° C. in 30% glycerol.

Another data set in a line: Human serum stability. The data set is classed as in vitro ADME. As to the method: Human Serum Stability. […] After protein precipitation was complete, each aliquot was centrifuged (15000 g, 5 min, 4° C.) and analyzed by RP-HPLC. The percentage of remaining peptide at a given time point was determined by integrating the peak area and compared it to that of the untreated control (100%).

The next data set deals with SW480 cells. The format is cell-based. As for the experimental part:
(§1) MTT Assay. SW480 (Wnt-addicted) and MCF7 (Wnt-independent) cells were seeded in 96-well plate with 3×10^3 cells per well, and allowed to grow overnight. […] After that, 10 μL of an MTT stock solution (5 mg/mL) was added into each well and the plate was incubated at 37° C. for 4 h. 100 μL of SDS-HCl solubilizing solution was added and the plate was incubated at 37° C. overnight. The absorbance of the formazan product formed was measured at 570 nm on a Tecan microtiter plate reader. Cells were incubated with serially diluted compounds for 72 hours in the presence of 10% FBS. Data reported represent the mean±SD of 3 independent experiments.
(§2) Cell Viability Assay. Cell viability was determined using the MTT assay. […] Trypsin was neutralized with the addition of warm DPBS and cells were pelleted down at 200 g for 5 min at 4° C. […] Com-pounds were serially diluted in DPBS with standardized DMSO concentration (0.5% v/v) and added to each well. […] After that, 10 μL of MTT solution was added to each well, followed by incubation for 4 h at 37° C., 5% CO2. […] The next day, A565 was determined using a Tecan M1000 Infinite plate reader and absorbance values were standardized against cell-free wells and normalized to untreated control cells. Data was analyzed using GraphPad Prism v. […]

The subject of a further data set is MCF7 cells. Put plainly: MTT cell viability assay, MCF7 (Wnt-independent) cells. The data set is classed as cell-based. The settings on record: up to 20 μM. As for the experimental part:
as §1, §2
For orientation: Tetrazolium assays rely on reduction of a dye to a coloured formazan, in cell work by metabolically active cells.

For another data set, the target named is T2, GST-β-catenin, P35222.
T2 chain: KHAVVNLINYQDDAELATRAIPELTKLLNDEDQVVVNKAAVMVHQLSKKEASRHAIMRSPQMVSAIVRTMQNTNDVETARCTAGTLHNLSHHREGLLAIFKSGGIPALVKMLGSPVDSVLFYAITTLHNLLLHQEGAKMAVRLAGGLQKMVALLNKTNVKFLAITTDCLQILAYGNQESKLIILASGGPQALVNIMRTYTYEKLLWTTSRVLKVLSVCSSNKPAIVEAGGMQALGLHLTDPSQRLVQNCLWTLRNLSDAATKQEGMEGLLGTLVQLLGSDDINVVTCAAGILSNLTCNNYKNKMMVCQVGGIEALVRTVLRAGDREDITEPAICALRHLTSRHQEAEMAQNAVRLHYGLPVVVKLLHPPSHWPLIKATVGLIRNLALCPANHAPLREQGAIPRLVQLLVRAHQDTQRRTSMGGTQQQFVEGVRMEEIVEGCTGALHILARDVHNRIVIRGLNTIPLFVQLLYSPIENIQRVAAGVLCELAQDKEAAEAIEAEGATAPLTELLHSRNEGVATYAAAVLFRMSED
Put plainly: fluorescence polarization; 10 nM FAM-peptide 1 against serial dilutions of GST-β-catenin. In general terms: In fluorescence polarisation assays a small probe gives low polarisation when free and higher when bound to something large.

Turning to `CC[C@H](C)[C@@H]1NC(=O)[C@@H](NC(=O)[C@H](CCC(=O)O)NC(=O)[C@@H]2CCCN2C(=O)[C@H](Cc2ccc(O)cc2)NC(C)=O)CC(=O)NCCCC[C@@H](C(=O)N[C@@H](Cc2c[nH]cn2)C(=O)N[C@@H](CC(C)C)C(=O)N[C@@H](CCC(N)=O)C(=O)N[C@@H](CCCNC(=N)N)C(=O)N[C@H](C(=O)N[C@H](C(=O)N[C@@H](CC(C)C)C(N)=O)[C@@H](C)CC)C(C)(C)O)NC(=O)[C@H](CC(=O)O)NC(=O)[C@H](CC(C)C)NC1=O` [Peptide 37], on β-catenin (relative to peptide 9), the “binding affinity for β-catenin compared to peptide 9” value is recorded as “identical”. For the same molecule, the “serum stability compared to peptide 9” value in the data set “Human serum stability” (relative to peptide 9) is “identical”.

`CC[C@H](C)[C@@H]1NC(=O)[C@@H](NC(=O)[C@H](CCC(=O)O)NC(=O)[C@@H]2CCCN2C(=O)[C@H](Cc2ccc(O)cc2)NC(=O)CNC(=O)CNC(C)=O)CC(=O)NCCCC[C@@H](C(=O)N[C@@H](Cc2c[nH]cn2)C(=O)N[C@@H](CC(C)C)C(=O)N[C@@H](CCC(N)=O)C(=O)N[C@@H](CCCNC(=N)N)C(=O)N[C@H](C(=O)N[C@H](C(=O)N[C@@H](CC(C)C)C(=O)NCCOCCOCC(=O)NCCOCCOCC(=O)N[C@@H](CNC(=O)CC[C@@H]2NC(=O)[C@@H](CCCNC(=N)N)NC(=O)[C@H](CCCNC(=N)N)NC(=O)[C@@H](CCCNC(=N)N)NC(=O)[C@H](CCCNC(=N)N)NC(=O)[C@H](Cc3ccc4ccccc4c3)NC(=O)[C@@H](Cc3ccccc3)NC2=O)C(N)=O)[C@@H](C)CC)C(C)C)NC(=O)[C@H](CC(=O)O)NC(=O)[C@H](CC(C)C)NC1=O` [peptide 2] (I: Ac-GGYPEDILDKHLQRVIL[AEEA][AEEA][Dap]-NH2 / II: cyclo([2Nal]R[dR]R[dR]E[dF]); lactam I:6-I:10; amide I:20-II:6): the EC50 in the data set on SW480 cells (MTT assay, read-out: EC50, viability / anti-proliferative activity against SW480 cells) worked out at 3700 nM.

In the case of `CC[C@H](C)[C@@H]1NC(=O)[C@@H](NC(=O)[C@H](CCC(=O)O)NC(=O)[C@@H]2CCCN2C(=O)[C@H](Cc2ccc(O)cc2)NC(=O)CNC(=O)CNC(C)=O)CC(=O)NCCCC[C@@H](C(=O)N[C@@H](CC(=O)O)C(=O)N[C@@H](CC(C)C)C(=O)N[C@@H](CCC(N)=O)C(=O)N[C@@H](CCCNC(=N)N)C(=O)N[C@H](C(=O)N[C@@H](C)C(=O)N[C@@H](CC(C)C)C(=O)NCCOCCOCC(=O)NCCOCCOCC(=O)N[C@@H](CNC(=O)CC[C@@H]2NC(=O)[C@@H](CCCNC(=N)N)NC(=O)[C@H](CCCNC(=N)N)NC(=O)[C@@H](CCCNC(=N)N)NC(=O)[C@H](CCCNC(=N)N)NC(=O)[C@H](Cc3ccc4ccccc4c3)NC(=O)[C@@H](Cc3ccccc3)NC2=O)C(N)=O)C(C)C)NC(=O)[C@H](Cc2c[nH]cn2)NC(=O)[C@H](CC(C)C)NC1=O` [peptide 3] (I: Ac-GGYPEDILHKDLQRVAL[AEEA][AEEA][Dap]-NH2 / II: cyclo([2Nal]R[dR]R[dR]E[dF]); lactam I:6-I:10 (inferred); amide I:20-II:6 (inferred); ring closure inferred), the “lower affinity for β-catenin than peptide 2” value at β-catenin (relative to peptide 2) is around 10 fold. Besides, the “viability of SW480 cells” value with SW480 cells (at the highest concentration tested (20 μM)) was “only slight decreases”.

In the case of `CC[C@H](C)[C@@H]1NC(=O)[C@@H](NC(=O)[C@H](CCC(=O)O)NC(=O)[C@@H]2CCCN2C(=O)[C@H](Cc2ccc(O)cc2)NC(=O)CNC(=O)CNC(C)=O)CC(=O)NCCCC[C@@H](C(=O)N[C@@H](Cc2c[nH]cn2)C(=O)N[C@@H](CC(C)C)C(=O)N[C@@H](CCC(N)=O)C(=O)N[C@@H](CCCNC(=N)N)C(=O)N[C@H](C(=O)N[C@H](C(=O)N[C@@H](CC(C)C)C(=O)NCCOCCOCC(=O)NCCOCCOCC(=O)N[C@@H](CNC(=O)[C@H](CCCNC(=N)N)NC(=O)[C@H](CCCNC(=N)N)NC(=O)[C@H](CCCNC(=N)N)NC(=O)[C@H](CCCNC(=N)N)NC(=O)[C@H](CCCNC(=N)N)NC(=O)[C@H](CCCNC(=N)N)NC(=O)[C@H](CCCNC(=N)N)NC(=O)[C@H](CCCNC(=N)N)NC(=O)[C@@H](N)CCCNC(=N)N)C(N)=O)[C@@H](C)CC)C(C)C)NC(=O)[C@H](CC(=O)O)NC(=O)[C@H](CC(C)C)NC1=O` [peptide 5], the “effect on MCF7 cell viability” value in the data set on MCF7 cells is “reduced the viability of MCF7 cells”.

On to `CC[C@H](C)[C@@H]1NC(=O)[C@@H](NC(=O)[C@H](CCC(=O)O)NC(=O)[C@@H]2CCCN2C(=O)[C@H](Cc2ccc(O)cc2)NC(=O)CNC(=O)CNC(C)=O)CC(=O)NCCCC[C@@H](C(=O)N[C@@H](Cc2c[nH]cn2)C(=O)N[C@@H](CC(C)C)C(=O)N[C@@H](CCC(N)=O)C(=O)N[C@@H](CCCNC(=N)N)C(=O)N[C@H](C(=O)N[C@H](C(=O)N[C@@H](CC(C)C)C(=O)NCCC(N)=O)[C@@H](C)CC)C(C)(C)C)NC(=O)[C@H](CC(=O)O)NC(=O)[C@H](CC(C)C)NC1=O` [Peptide 9, Ac-GGYPEDILDKHLQRZIL(β-Ala)-NH2], for which the IC50 – broadly, the midpoint of a concentration-inhibition curve – on β-catenin (IC50, competition with FAM-labeled peptide 1 (10 nM), 50 nM GST-β-catenin, read-out: KD or IC50) turned out to be 305 ± 19 nM. For the same molecule, the half-life at 100 μM in “Human serum stability” (human, human serum diluted 1:4 in DPBS, human serum, read-out: serum t1/2 (converted)) is around 12 h.

As for `CC[C@H](C)[C@@H]1NC(=O)[C@@H](NC(=O)[C@H](CCC(=O)O)NC(=O)[C@@H]2CCCN2C(=O)[C@H](Cc2ccc(O)cc2)NC(=O)CNC(=O)CNC(C)=O)CC(=O)NCCCC[C@@H](C(=O)N[C@@H](Cc2c[nH]cn2)C(=O)N[C@@H](CC(C)C)C(=O)N[C@@H](CCC(N)=O)C(=O)N[C@@H](CCCNC(=N)N)C(=O)N[C@H](C(=O)N[C@H](C(=O)N[C@@H](CC(C)C)C(=O)NCCOCCOCC(=O)NCCOCCOCC(=O)N[C@@H](CNC(=O)[C@H](CCC(N)=O)NC(=O)[C@@H]2CCCN2C(=O)[C@@H]2CCCN2C(=O)[C@H](CCCNC(=N)N)NC(=O)[C@H](CCCNC(=N)N)NC(=O)[C@H](CCCNC(=N)N)NC(=O)[C@H](CCC(N)=O)NC(=O)[C@H](CCCNC(=N)N)NC(=O)[C@H](CCCNC(=N)N)NC(=O)[C@H](CCCCN)NC(=O)[C@H](CCCCN)NC(=O)[C@H](CCCNC(=N)N)NC(=O)CN)C(N)=O)[C@@H](C)CC)C(C)C)NC(=O)[C@H](CC(=O)O)NC(=O)[C@H](CC(C)C)NC1=O` [peptide 4], the “effect on MCF7 cell viability” value in the data set with MCF7 cells was “reduced the viability of MCF7 cells”.

B1: peptide 1 (peptide)
peptide: GGYPECILDCHLQRVIL
modifications: not checked
With B1, the dissociation constant Kd – broadly, the free concentration of one partner at which half of the binding sites on the other are occupied at equilibrium, for simple one-to-one binding – with GST-β-catenin, P35222 is 18 nM.
